The text below walks through data of ChEMBL document CHEMBL1126346, “C-linked pyrazole biaryl tetrazoles as antagonists of angiotensin II” (1992).

The target in experiment [1] is T1, Type-1 angiotensin II receptor (Oryctolagus cuniculus) (UniProt P34976).
T1 sequence (whole entry): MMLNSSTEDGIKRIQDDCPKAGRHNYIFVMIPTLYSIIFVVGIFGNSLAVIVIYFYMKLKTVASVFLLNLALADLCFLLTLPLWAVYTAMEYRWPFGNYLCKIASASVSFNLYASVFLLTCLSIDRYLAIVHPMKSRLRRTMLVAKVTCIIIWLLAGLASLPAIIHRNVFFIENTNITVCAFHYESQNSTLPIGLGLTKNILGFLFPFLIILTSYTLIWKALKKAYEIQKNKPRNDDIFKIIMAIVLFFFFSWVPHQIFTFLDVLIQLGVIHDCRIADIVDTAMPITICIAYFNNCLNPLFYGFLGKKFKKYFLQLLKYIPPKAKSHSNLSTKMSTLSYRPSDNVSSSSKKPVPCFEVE
Briefly: In vitro inhibition of ATII induced contractions of the isolated rabbit aorta.

The species named for experiment [2] is Rattus norvegicus. Briefly: Effect on diastolic blood pressure of hypertensive rats; Inactive. Format: functional, organism-based. As to conditions: Artery.
The test system of experiment [3] is Rattus norvegicus. Briefly: Effect on diastolic blood pressure of hypertensive rats 1 hour following 1 mg/kg p.o. administration. Type of experiment: functional, Artery. The note with it: route oral.
Experiment [4] deals with Rattus norvegicus. Nature of the experiment: Effect on diastolic blood pressure of hypertensive rats 3 hours following 1 mg/kg p.o. administration. Type of experiment: functional, Artery. The note with it: route oral.
Experiment [5] has as its system Rattus norvegicus. Nature of the experiment: Effect on diastolic blood pressure of hypertensive rats 24 hours following 1 mg/kg p.o. administration. Type of experiment: functional, Artery. The note with it: route oral.
Experiment [6] has as its system Rattus norvegicus. Briefly: Effect on diastolic blood pressure of hypertensive rats 48 hours following 1 mg/kg p.o. administration. Type of experiment: functional, Artery. The note with it: route oral.
Experiment [7] has as its system Rattus norvegicus. Nature of the experiment: Effect on diastolic blood pressure of hypertensive rats 5 hours following 1 mg/kg p.o. administration. Type of experiment: functional, Artery. The note with it: route oral.
Experiment [8] concerns Rattus norvegicus. Briefly: Effect on diastolic blood pressure of hypertensive rats 7 hours following 1 mg/kg p.o. administration. Format: functional, Artery. As to conditions: route oral.
The test system of experiment [9] is Rattus norvegicus. Nature of the experiment: Effect on diastolic blood pressure of hypertensive rats immediately following 1 mg/kg p.o. administration. Type of experiment: functional, Artery. The note with it: route oral.

Each structure is given as a SMILES string. The source made the active and inactive calls. The rule behind the calls is not given here.

In [1], `CCCCc1nn(CC)c(C(=O)O)c1Cc1ccc(-c2ccccc2C(=O)O)cc1` registered a pKB of 8. The molecule `CCCCc1nn(CC)c(C(=O)OCC)c1Cc1ccc(-c2ccccc2-c2nn[nH]n2)cc1` displayed a pKB in [1] of 8.

The molecule `CCCCc1nn(C2CCC2)c(C(=O)O)c1Cc1ccc(-c2ccccc2-c2nn[nH]n2)cc1` returned a pKB in [1] of 10.9. The Blood pressure entry in experiment [2] was “inactive”. `CCCCc1c(Cc2ccc(-c3ccccc3-c3nn[nH]n3)cc2)c(C(=O)O)nn1C(C)C` registered a pKB in experiment [1] of 8. On the same count and under the same terms, to `CCCCc1nn(C(C)C)c(C(=O)O)c1Cc1ccc(-c2ccccc2-c2nn[nH]n2)cc1` belongs 10; to `CCCCc1nn(CC)c(CO)c1Cc1ccc(-c2ccccc2-c2nn[nH]n2)cc1`, 8; to `CCCCc1c(Cc2ccc(-c3ccccc3-c3nn[nH]n3)cc2)c(C(=O)O)nn1CC(F)(F)F`, 7.7. For `CCCCc1nn(CC2CC2)c(C(=O)O)c1Cc1ccc(-c2ccccc2-c2nn[nH]n2)cc1`, the pKB in experiment [1] was 10.5. Moreover, the Blood pressure came to 145 mmHg in [3]; 115 mmHg in experiment [4]; 97 mmHg in [5]; 130 mmHg in [6]; 95 mmHg in experiment [7]; 95 mmHg in experiment [8]. In [9], the Blood pressure was found to be 150 mmHg. In turn, `CCCCc1nn(CC(F)(F)F)c(COC)c1Cc1ccc(-c2ccccc2-c2nn[nH]n2)cc1` registered a pKB in experiment [1] of 7. Still for that read-out and setting: next, `CCCCc1nn(CC(F)(F)F)c(C(=O)O)c1Cc1ccc(-c2ccccc2-c2nn[nH]n2)cc1`: 9.8; `CCCCc1nn(C)c(C(=O)O)c1Cc1ccc(-c2ccccc2-c2nn[nH]n2)cc1`: 9.8. On the same count and under the same terms, to `CCCCc1nn(CCCC)c(C(=O)O)c1Cc1ccc(-c2ccccc2-c2nn[nH]n2)cc1` belongs 10; to `CCCCc1n[nH]c(C(=O)O)c1Cc1ccc(-c2ccccc2-c2nn[nH]n2)cc1`, 8.8; to `CCCCc1nn(CCC)c(C(=O)O)c1Cc1ccc(-c2ccccc2-c2nn[nH]n2)cc1`, 10.5. Still for that read-out and setting: to `CCCCc1nn(CC)c(C(=O)NC)c1Cc1ccc(-c2ccccc2-c2nn[nH]n2)cc1` belongs 7.5; to `CCCCc1c(Cc2ccc(-c3ccccc3-c3nn[nH]n3)cc2)c(COC)nn1CC(F)(F)F`, 7. Turning to `CCCCc1nn(CC)c(C(=O)O)c1Cc1ccc(-c2ccccc2-c2nn[nH]n2)cc1`, the pKB in [1] worked out at 9.8.

Molecule `CCCCc1nn(CC)c(C(=O)O)c1Cc1ccc(-c2ccccc2NS(=O)(=O)C(F)(F)F)cc1` had a negative-log KB (pKB) in [1] of 8. Still for that read-out and setting: to `CCCCc1nn(CC(C)(C)C)c(C(=O)O)c1Cc1ccc(-c2ccccc2-c2nn[nH]n2)cc1` belongs 10.6; to `CCCCc1c(Cc2ccc(-c3ccccc3-c3nn[nH]n3)cc2)c(C(=O)O)nn1CCCC`, 8. As for `CCCCc1nn(CC(C)C)c(C(=O)O)c1Cc1ccc(-c2ccccc2-c2nn[nH]n2)cc1`, the negative-log KB (pKB) in experiment [1] was determined as 11.
